Holding throughout (assay type): cell-based
In experiment [1] the test system is Escherichia coli (strain Leo HA2). Briefly: in vitro serial dilution test, minimum inhibitory concentration. To be noted: 10^6 cells/ml, over night at 37° C, compound alone. The procedure: The in vitro activity of FL 1060, trimethoprim, and combinations of the two compounds against Escherichia coli (strain Leo HA2) was determined in a serial dilution test. […] Minimum inhibitory concentrations (MIC) were taken as the lowest concentrations of either of the compounds alone or of a combination of both at which no visible growth occurred.

The test system of experiment [2] is Escherichia coli (Leo HA2). The experiment in a line: serial dilution test (technique of Example 1), medium with addition of 10 g of sodium chloride per liter, MIC. The note with it: medium + 10 g sodium chloride per liter, compound alone. The procedure: (§1) A fluid medium containing:
(§2) and containing the appropriate concentrations of the compounds, or of the combinations of them was inoculated with 10^6 cells/ml organisms and incubated over night at 37° C. Minimum inhibitory concentrations (MIC) were taken as the lowest concentrations of either of the compounds alone or of a combination of both at which no visible growth occurred.

For experiment [3], the system named is Klebsiella pneumoniae (Leo HE). The description is as above. To be noted: medium + 10 g sodium chloride per liter, compound alone. Here is the method:
as §1, §2

Experiment [4] deals with Salmonella typhimurium (Leo HL2). The experiment is described as above. The note with it: Salmonella enterica, medium + 10 g sodium chloride per liter, compound alone. Here is the method: as §1, §2
A further experiment has as its system Haemophilus influenzae. Briefly: combined activity in vitro, serial dilutions in chocolate agar plates arranged in form of a chess board, MIC. To be noted: compound alone. Here is the method: Combined activity of FL 1060 and trimethoprim against Haemophilus influenzae in vitro. Serial dilutions of FL 1060 and trimethoprim were performed in "chocolate agar"^x) plates arranged in form of a chess board. Inoculum: 3.5 μl drops containing about 10^7 cells/ml. Incubation: overnight at 36° C. ^x) Caseinhydrolysate (pancreatic) 1.3%, dextrose 0.085%, sodium chloride 0.21%, 1-cystine 0.004%, agar (Oxoid No. 1) 0.6% in distilled water, pH 7.1 after autoclaving, horse blood (defibriated) 5%, yeast extract (Difco) 1.3% (membrane filtered) added at 80° C.

Where [5] appears, read: strain IX14, overnight at 36° C.
The mark [6] stands for this setting: strain IX15, overnight at 36° C.

Where a name gives a salt, the structure may show the parent alone.

For the compound `CC1(C)S[C@@H]2[C@H](N=CN3CCCCCC3)C(=O)N2[C@H]1C(=O)O` [FL 1060, 6-[(hexahydro-1H-azepin-1-yl)-methyleneamino]-penicillanic acid, hydrochloride, dihydrate], the MIC in experiment [1] is 0.016 µg/mL; in experiment [2], 50 µg/mL; in experiment [3], 0.5 µg/mL; in experiment [4], over 100 µg/mL; in the experiment on Haemophilus influenzae (strain IX5, overnight at 36° C), over 100 µg/mL; in the experiment on Haemophilus influenzae (strain IX6, overnight at 36° C) it was over 100 µg/mL. The MIC in the experiment with Haemophilus influenzae (setting [5]) and in the experiment on Haemophilus influenzae (setting [6]) was over 100 µg/mL throughout.
`COc1cc(Cc2cnc(N)nc2N)cc(OC)c1OC` [Trimethoprim, 2,4-diamino-5(3,4,5-trimethoxybenzyl)-pyrimidine]: the MIC in experiment [1] was 100 µg/mL; in experiment [2] it was over 50 µg/mL; in experiment [3] it was 1.6 µg/mL; in experiment [4], over 100 µg/mL; in the experiment with Haemophilus influenzae (strain IX5, overnight at 36° C), 1 µg/mL; in the experiment with Haemophilus influenzae (strain IX6, overnight at 36° C) it was 3.2 µg/mL. Further, the MIC in the experiment on Haemophilus influenzae (setting [5]) and in the experiment on Haemophilus influenzae (setting [6]) was over 100 µg/mL throughout.
